Active and inactive are the calls of the source.
Columns and labels:
[1] = biological target: DNA (cytosine-5)-methyltransferase 1 (Homo sapiens, UniProt P26358); experiment: DNMT1 methyltransferase inhibitors, confirmation, biochemical, fluorescent molecular beacon (AID 602386); format: functional
[2] = biological target: Intestinal-type alkaline phosphatase (Homo sapiens, UniProt P09923); experiment: inhibition of human intestinal alkaline phosphatase – biochemical, dose response (AID 488876); format: functional
Phospholipase A2 = Phospholipase A2 (Homo sapiens, UniProt P04054); format: functional;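 also: confirmatory dose-response counterscreen on phospholipase A2, testing hits that came from an ultra-high-throughput screen for ATG4B inhibitors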
[3] = biological target: Intestinal-type alkaline phosphatase (Mus musculus, UniProt P24822); experiment: PubChem AID 488785; format: functional
Keap1/Nrf2 = Keap1/Nrf2 (Homo sapiens, UniProt Q14145); experiment: Keap1-Nrf2 protein-protein interaction inhibitors, dose response, biochemical, fluorescence polarization, cherry-picked samples (AID 588683)
SUMO-activating enzyme [4] = biological target: T1, SUMO-activating enzyme (Homo sapiens, UniProt Q9UBT2); experiment: SUMOylation inhibitor hit validation, confirmation, SUMOylation inhibitor project, biochemical, AlphaScreen (AID 2018); format: functional
SUMO-activating enzyme [5] = biological target: T1, SUMO-activating enzyme; experiment: inhibitors of in vitro SUMOylation cascade, primary screen, biochemical, HTRF, uHTS (AID 2006); format: protein-complex assay
[6] = biological target: T2, Tyrosyl-DNA phosphodiesterase 2 (Homo sapiens, UniProt O95551); experiment: human TDP2 enzyme inhibitors, dose response, biochemical, epi absorbance, IC50 (AID 743297)
T2 sequence (O95551 whole entry): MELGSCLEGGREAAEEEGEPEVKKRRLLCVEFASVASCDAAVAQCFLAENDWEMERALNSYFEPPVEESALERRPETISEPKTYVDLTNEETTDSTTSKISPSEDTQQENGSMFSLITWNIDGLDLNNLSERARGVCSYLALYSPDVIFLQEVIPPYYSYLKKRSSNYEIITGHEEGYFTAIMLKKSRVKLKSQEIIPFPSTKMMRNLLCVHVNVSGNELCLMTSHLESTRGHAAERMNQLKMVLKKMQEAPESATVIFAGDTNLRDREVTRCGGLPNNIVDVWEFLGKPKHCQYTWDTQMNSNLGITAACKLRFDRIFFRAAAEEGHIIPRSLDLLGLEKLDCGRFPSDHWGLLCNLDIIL

[7] = biological target: 72 kDa type IV collagenase (Homo sapiens, UniProt P08253); experiment: Dose Response validation of uHTS RPN11 inhibitor hits using a MMP-2 Fluorescence assay.; format: functional
[8] = biological target: T3, Alkaline phosphatase, tissue-nonspecific isozyme (Homo sapiens, UniProt P05186); experiment: TNAP enzyme inhibition by screening hits, dose response, selectivity assay for mouse IAP inhibitor project, biochemical, human TNAP, uHTS hits (AID 488906); format: functional
T3 sequence (P05186 whole entry): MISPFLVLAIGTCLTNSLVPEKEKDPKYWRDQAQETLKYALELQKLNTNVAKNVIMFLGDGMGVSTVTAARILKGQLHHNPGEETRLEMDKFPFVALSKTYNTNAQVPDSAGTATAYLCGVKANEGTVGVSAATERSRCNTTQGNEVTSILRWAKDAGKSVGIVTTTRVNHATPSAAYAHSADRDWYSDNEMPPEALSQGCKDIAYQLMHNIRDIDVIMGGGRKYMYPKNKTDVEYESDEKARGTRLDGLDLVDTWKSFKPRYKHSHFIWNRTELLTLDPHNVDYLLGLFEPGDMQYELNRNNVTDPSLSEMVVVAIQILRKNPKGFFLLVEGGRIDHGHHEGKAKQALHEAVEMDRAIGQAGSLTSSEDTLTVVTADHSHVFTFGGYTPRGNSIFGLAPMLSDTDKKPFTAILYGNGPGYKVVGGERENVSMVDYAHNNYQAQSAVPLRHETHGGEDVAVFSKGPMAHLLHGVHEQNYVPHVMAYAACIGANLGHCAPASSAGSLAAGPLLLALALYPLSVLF

Cysteine protease ATG4B = biological target: T4, Cysteine protease ATG4B (Homo sapiens, UniProt Q9Y4P1); format: functional;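 also: Fluorescence-based dose-response confirmation assay measuring inhibition of ATG4B activity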
T4 sequence (Q9Y4P1 whole entry): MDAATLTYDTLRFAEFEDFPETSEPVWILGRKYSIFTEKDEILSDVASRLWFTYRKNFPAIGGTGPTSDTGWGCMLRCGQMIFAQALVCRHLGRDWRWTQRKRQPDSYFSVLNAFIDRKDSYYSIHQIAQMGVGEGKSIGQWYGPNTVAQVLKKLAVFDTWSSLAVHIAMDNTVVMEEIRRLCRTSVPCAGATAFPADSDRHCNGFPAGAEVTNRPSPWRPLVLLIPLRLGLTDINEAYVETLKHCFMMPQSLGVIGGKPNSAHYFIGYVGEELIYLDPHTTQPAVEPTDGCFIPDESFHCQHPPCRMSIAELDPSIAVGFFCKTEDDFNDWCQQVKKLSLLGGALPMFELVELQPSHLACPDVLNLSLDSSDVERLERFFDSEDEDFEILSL

[9] = biological target: T5, Histone-lysine N-methyltransferase NSD2 (Homo sapiens, UniProt O96028); format: biochemical
T5 sequence (O96028 whole entry): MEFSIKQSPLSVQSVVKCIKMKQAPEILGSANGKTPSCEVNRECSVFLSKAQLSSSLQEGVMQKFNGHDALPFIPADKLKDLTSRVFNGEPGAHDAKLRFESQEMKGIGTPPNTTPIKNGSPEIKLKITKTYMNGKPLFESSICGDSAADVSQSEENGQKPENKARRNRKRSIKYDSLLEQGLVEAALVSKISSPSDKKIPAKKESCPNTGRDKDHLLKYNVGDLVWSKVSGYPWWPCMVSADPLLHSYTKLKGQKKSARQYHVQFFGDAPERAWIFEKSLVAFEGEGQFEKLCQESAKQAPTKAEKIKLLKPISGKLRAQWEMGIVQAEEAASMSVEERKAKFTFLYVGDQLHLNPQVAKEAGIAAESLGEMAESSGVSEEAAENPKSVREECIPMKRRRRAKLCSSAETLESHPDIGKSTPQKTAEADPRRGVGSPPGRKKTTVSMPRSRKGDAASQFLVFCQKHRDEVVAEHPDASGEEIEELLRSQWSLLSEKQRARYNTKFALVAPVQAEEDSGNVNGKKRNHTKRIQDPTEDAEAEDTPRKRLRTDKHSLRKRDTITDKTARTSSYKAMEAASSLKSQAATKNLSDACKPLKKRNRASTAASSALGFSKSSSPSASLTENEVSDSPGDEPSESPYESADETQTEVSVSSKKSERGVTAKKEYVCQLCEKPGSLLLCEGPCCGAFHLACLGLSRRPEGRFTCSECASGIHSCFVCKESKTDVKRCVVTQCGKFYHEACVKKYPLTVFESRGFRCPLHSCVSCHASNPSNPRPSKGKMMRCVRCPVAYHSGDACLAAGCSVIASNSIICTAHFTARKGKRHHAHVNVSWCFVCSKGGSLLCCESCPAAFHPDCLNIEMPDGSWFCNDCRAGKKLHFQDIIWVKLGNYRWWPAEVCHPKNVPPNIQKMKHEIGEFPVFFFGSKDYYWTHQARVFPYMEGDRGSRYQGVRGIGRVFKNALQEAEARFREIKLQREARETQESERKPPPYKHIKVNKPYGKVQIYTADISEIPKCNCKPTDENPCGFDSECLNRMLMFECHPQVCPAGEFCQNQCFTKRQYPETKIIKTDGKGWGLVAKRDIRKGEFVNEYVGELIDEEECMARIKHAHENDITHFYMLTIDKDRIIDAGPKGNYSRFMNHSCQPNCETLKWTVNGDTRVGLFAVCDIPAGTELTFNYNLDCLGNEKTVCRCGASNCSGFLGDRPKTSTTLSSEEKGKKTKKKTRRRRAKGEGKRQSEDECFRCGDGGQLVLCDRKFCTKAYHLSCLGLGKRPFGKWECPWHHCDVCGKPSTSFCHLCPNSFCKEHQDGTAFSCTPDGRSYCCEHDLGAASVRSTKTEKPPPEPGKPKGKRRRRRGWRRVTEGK

Prothrombin = Prothrombin (Bos taurus, UniProt P00735); experiment: thrombin inhibition, dose response, biochemical, fluorescence polarization, uHTS hits (AID 602369); format: functional
[10] = biological target: 26S proteasome non-ATPase regulatory subunit 14 (Homo sapiens, UniProt O00487); experiment: inhibition of proteasome subunit RPN11 – biochemical, fluorescence polarization, uHTS hits, confirmation (AID 602368); format: functional
[11] = biological target: T6, Heat shock factor protein 1 (Mus musculus, UniProt P38532); experiment: inhibition of MG132-induced HSE-luciferase signal, confirmation, cell-based, NIH3T3, luminescence, dose retest (AID 2382); format: functional;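 also: NIH3T3 fibroblasts with HSF1-driven luciferase reporter stressed by proteasome inhibitor MG132; luminescence from HSF1-driven luciferase expression after 8 hours of MG132 stress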
T6 sequence (P38532 whole entry): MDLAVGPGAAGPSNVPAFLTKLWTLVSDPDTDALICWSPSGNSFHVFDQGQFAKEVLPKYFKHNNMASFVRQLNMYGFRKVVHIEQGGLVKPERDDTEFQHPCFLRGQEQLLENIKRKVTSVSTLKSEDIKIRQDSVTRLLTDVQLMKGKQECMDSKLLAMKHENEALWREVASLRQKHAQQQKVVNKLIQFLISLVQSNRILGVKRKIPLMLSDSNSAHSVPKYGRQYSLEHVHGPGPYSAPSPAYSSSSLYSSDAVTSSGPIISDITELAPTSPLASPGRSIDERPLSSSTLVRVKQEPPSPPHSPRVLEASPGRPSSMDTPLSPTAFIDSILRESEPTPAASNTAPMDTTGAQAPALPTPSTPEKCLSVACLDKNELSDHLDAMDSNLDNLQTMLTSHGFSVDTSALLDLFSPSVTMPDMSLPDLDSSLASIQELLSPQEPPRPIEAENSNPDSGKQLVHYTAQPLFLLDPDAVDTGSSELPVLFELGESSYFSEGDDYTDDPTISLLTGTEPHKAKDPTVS

[12] = biological target: Heat shock protein HSP 90-alpha (Homo sapiens, UniProt P07900); format: functional, organism-based
Genome polyprotein = Genome polyprotein (dengue virus type 2, UniProt P29990); experiment: Dengue-2 NS5 methyltransferase inhibitors, primary screen, biochemical, confirmation dose response (AID 588689); format: functional
ORF 73 = ORF 73 (Human herpesvirus 8, UniProt O40947); experiment: inhibitors of C-LANA binding to LBS DNA, dose response, biochemical, fluorescence polarization, cherry-picked samples (AID 504725); design: species or system Human gammaherpesvirus 8;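 also: fluorescence polarization of a labeled DNA duplex reporting LANA DNA binding; potency is for inhibitors that block LANA binding to the DNA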
Beta-lactamase [13] = biological target: Beta-lactamase (Salmonella choleraesuis (strain SC-B67), UniProt Q5J463)
[14] = biological target: Voltage-dependent T-type calcium channel subunit alpha-1H (Homo sapiens, UniProt O95180); format: functional;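 also: channel activity triggered by adding a high calcium stimulation buffer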
[15] = biological target: T7, Zinc finger protein mex-5 (Caenorhabditis elegans, UniProt Q9XUB2); experiment: MEX-5/TCR-2 RNA interaction inhibitors, dose response, biochemical, C. elegans, fluorescence polarization (AID 1960)
T7 sequence (Q9XUB2 whole entry): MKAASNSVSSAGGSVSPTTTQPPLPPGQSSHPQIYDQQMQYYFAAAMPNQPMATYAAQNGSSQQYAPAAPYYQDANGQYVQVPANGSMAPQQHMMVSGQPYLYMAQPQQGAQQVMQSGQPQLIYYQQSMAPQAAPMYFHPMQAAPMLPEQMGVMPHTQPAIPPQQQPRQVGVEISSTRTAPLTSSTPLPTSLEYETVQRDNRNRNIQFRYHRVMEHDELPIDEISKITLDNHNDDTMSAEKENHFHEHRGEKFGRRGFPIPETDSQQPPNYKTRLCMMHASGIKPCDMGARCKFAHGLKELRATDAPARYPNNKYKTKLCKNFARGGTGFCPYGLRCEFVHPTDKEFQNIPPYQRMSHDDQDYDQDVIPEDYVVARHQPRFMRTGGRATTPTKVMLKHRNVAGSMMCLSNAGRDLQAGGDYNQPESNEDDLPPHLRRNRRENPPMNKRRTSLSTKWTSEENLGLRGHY

[16] = biological target: T8, RNA-binding protein pos-1 (Caenorhabditis elegans, UniProt G5EF15); experiment: inhibitors of POS-1/mex-3 RNA binding, dose response, biochemical, fluorescence polarization (AID 1964);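 also: purified POS-1 fused to maltose binding protein made in E. coli; potency of compounds blocking POS-1 binding to fluorescent RNA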
T8 sequence (G5EF15 whole entry): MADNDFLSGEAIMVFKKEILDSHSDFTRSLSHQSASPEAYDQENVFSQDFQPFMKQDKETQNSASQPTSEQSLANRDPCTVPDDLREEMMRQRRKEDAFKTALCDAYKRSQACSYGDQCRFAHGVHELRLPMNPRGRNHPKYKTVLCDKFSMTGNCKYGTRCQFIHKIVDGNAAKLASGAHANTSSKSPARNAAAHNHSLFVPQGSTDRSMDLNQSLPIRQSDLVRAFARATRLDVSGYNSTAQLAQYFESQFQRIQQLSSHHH

Beta-lactamase [17] = biological target: Beta-lactamase (Pseudomonas aeruginosa, UniProt Q79MP6);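 also: biochemical dose-response test of metallo-beta-lactamase enzyme inhibition, read out by epi-absorbance; purified recombinant IMP-1 metallo-beta-lactamase with nitrocefin as substrate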
[18] = biological target: DNA dC->dU-editing enzyme APOBEC-3A (Homo sapiens, UniProt P31941); experiment: APOBEC3A DNA deaminase inhibitors, dose response, biochemical (AID 504722); format: functional
[19] = biological target: DNA dC->dU-editing enzyme APOBEC-3G (Homo sapiens, UniProt Q9HC16); experiment: Dose Response confirmation of small molecule APOBEC3G DNA Deaminase Inhibitors via a fluorescence-based single-stranded DNA deaminase assay. [Related pubchem assays (depositor defined):AID493012, AID493028]; format: functional

Sequence of ORF 73 (O40947 whole entry): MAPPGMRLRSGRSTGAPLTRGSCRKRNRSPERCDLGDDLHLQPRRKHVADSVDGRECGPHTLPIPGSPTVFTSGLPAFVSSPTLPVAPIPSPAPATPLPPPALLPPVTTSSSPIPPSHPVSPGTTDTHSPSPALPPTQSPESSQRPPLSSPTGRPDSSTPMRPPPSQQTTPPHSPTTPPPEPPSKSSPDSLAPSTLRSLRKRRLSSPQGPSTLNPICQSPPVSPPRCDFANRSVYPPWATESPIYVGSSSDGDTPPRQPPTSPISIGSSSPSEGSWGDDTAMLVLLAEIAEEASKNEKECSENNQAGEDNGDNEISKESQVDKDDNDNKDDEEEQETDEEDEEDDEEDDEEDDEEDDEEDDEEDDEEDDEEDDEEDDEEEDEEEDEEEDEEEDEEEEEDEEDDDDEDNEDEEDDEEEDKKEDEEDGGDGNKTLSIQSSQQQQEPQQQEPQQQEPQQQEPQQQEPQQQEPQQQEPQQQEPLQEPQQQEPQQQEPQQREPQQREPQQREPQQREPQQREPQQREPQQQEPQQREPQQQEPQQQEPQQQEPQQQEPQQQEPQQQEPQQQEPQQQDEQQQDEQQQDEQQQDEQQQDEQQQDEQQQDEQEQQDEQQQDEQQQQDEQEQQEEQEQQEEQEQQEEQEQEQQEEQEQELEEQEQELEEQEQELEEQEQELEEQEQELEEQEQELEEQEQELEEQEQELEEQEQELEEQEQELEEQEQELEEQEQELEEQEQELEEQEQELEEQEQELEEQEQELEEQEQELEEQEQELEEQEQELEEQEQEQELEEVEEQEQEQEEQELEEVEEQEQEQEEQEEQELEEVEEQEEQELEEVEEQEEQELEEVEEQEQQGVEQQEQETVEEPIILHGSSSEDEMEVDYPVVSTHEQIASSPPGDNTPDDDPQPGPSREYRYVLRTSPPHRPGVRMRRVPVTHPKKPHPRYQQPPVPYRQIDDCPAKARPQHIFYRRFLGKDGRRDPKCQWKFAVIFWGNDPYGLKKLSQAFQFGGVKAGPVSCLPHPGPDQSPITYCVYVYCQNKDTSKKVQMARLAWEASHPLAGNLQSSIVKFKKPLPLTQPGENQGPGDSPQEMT
Sequence of Keap1/Nrf2 (Q16236 whole entry): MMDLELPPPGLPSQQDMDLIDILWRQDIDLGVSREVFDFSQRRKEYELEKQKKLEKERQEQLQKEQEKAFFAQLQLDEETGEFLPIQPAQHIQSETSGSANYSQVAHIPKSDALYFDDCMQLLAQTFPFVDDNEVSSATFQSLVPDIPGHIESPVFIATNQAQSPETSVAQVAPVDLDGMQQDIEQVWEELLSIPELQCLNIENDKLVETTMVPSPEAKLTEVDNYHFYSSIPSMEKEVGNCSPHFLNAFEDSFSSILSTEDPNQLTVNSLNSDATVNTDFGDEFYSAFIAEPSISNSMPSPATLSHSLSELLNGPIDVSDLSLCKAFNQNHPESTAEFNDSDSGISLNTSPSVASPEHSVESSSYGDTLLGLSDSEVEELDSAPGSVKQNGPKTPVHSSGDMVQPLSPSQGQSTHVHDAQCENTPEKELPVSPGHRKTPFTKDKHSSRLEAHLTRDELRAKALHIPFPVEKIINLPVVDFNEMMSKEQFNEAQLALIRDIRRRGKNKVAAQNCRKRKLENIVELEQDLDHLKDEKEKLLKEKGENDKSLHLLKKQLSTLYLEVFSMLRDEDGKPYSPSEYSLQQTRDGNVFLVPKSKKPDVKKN
Sequence of Keap1/Nrf2 (Q14145 whole entry): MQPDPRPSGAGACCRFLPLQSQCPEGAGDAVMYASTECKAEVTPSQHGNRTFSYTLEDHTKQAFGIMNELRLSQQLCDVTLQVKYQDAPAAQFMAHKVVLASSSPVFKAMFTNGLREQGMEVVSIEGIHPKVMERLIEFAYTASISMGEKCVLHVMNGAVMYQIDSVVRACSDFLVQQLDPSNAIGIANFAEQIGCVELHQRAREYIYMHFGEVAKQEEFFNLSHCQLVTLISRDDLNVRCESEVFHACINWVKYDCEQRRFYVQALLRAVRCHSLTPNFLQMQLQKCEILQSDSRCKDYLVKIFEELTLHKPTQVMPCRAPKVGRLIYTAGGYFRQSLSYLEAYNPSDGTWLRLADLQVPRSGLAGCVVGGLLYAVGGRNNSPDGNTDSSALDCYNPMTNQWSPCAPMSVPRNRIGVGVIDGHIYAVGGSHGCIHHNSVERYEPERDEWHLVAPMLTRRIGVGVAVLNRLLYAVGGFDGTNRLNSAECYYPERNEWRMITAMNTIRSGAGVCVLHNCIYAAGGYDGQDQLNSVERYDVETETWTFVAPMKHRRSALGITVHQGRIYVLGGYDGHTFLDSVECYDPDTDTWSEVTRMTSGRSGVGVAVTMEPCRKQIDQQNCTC
T1 sequence (Q9UBE0 whole entry): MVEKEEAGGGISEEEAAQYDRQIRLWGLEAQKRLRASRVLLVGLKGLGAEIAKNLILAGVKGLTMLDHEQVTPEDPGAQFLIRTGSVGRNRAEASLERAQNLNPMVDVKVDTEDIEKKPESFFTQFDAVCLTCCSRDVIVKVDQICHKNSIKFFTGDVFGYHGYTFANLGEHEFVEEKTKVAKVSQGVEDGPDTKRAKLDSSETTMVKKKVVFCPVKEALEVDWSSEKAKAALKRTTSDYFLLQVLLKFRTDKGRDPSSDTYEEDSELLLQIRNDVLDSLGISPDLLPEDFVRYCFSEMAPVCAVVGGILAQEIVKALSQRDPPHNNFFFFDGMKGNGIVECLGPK
T1 sequence (Q9UBT2 whole entry): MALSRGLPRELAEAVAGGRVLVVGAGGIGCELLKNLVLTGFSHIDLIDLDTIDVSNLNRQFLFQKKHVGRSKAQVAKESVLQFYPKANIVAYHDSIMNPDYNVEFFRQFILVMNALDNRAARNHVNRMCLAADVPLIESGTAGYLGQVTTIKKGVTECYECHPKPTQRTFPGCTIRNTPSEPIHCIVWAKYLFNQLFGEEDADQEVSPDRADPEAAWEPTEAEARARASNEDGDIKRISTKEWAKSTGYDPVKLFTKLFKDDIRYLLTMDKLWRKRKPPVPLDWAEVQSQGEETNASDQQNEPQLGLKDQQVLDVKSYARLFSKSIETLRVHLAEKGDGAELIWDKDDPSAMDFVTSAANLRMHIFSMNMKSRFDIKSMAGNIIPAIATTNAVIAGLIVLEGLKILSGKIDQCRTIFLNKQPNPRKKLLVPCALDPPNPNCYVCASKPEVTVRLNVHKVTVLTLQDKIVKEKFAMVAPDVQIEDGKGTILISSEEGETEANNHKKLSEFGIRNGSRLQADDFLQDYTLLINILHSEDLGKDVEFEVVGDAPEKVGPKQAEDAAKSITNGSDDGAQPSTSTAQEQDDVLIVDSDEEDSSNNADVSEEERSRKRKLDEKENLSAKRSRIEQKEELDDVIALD
Sequence of 26S proteasome non-ATPase regulatory subunit 14 (O00487 whole entry): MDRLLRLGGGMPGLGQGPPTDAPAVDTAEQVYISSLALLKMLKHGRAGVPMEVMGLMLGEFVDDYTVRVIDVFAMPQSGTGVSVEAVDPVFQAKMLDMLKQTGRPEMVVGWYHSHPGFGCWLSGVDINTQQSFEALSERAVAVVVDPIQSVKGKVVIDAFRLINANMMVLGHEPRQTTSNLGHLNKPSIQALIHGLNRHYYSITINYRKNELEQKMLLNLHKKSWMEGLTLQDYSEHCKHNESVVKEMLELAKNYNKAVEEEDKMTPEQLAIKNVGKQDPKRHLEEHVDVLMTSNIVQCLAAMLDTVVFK
Sequence of DNA dC->dU-editing enzyme APOBEC-3A (P31941 whole entry): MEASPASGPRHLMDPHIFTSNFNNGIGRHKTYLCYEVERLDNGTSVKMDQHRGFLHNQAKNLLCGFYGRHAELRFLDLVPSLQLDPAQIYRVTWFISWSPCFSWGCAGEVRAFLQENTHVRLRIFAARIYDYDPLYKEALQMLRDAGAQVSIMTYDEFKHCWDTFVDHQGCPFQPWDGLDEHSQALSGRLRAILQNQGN
Sequence of Intestinal-type alkaline phosphatase (Homo sapiens, UniProt P09923) (P09923 whole entry): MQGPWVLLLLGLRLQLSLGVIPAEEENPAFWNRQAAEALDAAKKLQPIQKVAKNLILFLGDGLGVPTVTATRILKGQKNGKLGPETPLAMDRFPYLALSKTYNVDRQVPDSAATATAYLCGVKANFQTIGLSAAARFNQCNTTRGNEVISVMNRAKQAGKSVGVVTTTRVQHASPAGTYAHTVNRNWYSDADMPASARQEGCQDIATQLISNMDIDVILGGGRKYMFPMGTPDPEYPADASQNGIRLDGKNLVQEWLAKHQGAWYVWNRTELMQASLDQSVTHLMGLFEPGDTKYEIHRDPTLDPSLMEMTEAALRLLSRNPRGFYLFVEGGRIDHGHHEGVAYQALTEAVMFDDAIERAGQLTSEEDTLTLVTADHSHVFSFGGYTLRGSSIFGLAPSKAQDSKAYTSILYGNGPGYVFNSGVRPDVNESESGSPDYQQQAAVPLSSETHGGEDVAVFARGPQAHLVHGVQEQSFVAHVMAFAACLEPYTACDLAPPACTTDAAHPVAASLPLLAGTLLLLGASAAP
Sequence of Beta-lactamase (Pseudomonas aeruginosa, UniProt Q79MP6) (Q79MP6 whole entry): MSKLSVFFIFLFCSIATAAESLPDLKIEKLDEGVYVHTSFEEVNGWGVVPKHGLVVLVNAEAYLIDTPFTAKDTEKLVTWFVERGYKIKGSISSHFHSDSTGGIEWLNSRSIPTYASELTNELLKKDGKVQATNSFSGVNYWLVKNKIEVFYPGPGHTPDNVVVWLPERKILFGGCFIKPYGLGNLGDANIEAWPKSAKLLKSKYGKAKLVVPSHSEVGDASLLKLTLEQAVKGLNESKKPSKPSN
Sequence of Beta-lactamase (Salmonella choleraesuis (strain SC-B67), UniProt Q5J463) (Q5J463 whole entry): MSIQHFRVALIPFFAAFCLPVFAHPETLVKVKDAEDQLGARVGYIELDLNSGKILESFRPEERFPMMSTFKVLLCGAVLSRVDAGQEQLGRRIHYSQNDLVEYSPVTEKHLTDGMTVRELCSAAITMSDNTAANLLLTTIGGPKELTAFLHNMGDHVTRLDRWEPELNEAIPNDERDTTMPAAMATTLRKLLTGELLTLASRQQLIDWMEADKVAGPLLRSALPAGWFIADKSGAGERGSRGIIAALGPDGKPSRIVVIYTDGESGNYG

COc1cc(NS(=O)(=O)c2ccc(NC(=S)NC(=O)/C=C/c3ccco3)cc2)ncn1
IC50 [1]: 2.92 µM (active) | IC50 [2]: > 100 µM (inactive) | IC50 (Phospholipase A2): > 80 µM (inactive) | IC50 [3]: 18.4 µM (active) | AC50 (Keap1/Nrf2): > 52 µM (inactive) | IC50 (SUMO-activating enzyme [4]): 2.41 µM (active) | IC50 (SUMO-activating enzyme [5]): 26.1 µM (active) | IC50 [6]: 30.4 µM (inactive) | IC50 [7]: 2.15 µM (active) | IC50 [8]: 45.9 µM (active) | IC50 (Cysteine protease ATG4B): 6 µM (active) | AC50 [9]: 13.2 µM (active) | IC50 (Prothrombin): 20.5 µM (active) | IC50 [10]: 12.9 µM (active)

COc1ccc(OC)c(N2C(=O)NC(=O)/C(=C\c3ccc([N+](=O)[O-])s3)C2=O)c1
EC50 [11]: > 195 µM (not active) | AC50 [12]: 4.17 µM (active) | IC50 (Genome polyprotein): 39.9 µM (active) | AC50 (ORF 73): 90.7 µM (active)

Cc1n[nH]c(C)c1N1C(=O)c2cccc3c(N4CCCCCC4)ccc(c23)C1=O
AC50 (Keap1/Nrf2): 32.5 µM (active) | IC50 (Beta-lactamase [13]): 27.8 µM (inactive) | EC50 [14]: 1.04 µM (active) | EC50 [15]: 1.72 µM (inconclusive) | EC50 [16]: 6.94 µM (inconclusive) | AC50 (ORF 73): > 350 µM (inactive) | IC50 (Beta-lactamase [17]): > 59.6 µM (inactive)

Sc1nnc(COc2ccccc2)n1/N=C/c1ccccn1
IC50 [18]: > 100 µM (inactive) | IC50 [19]: 3.99 µM (active)
